The values that follow come from US11617723B2, “Composition for hepatic arterial chemoembolization using human serum albumin nanoparticles carrying anticancer agent, and method for producing same” (SOGANG UNIVERSITY RESEARCH FOUNDATION, priority 2016, dated 2023).

A short description of the series: In vitro drug release behavior (dialysis membrane in phosphate buffer saline, 37° C.). The class given is physicochemical. Conditions: 2000 Da dialysis membrane, PBS, 5 mg Adriamycin, FIG. 6. The method, then:
In addition, the human serum albumin nanoparticles and lipiodol, which is an embolic material, are mixed in various ratios using the same method as that used in hepatic arterial chemoembolization to be changed into an emulsion form, and the released Adriamycin is quantitatively analyzed to measure drug release behaviors.
To analyze Adriamycin released from the Adriamycin-bound human serum albumin nanoparticles, 1 mL (Adriamycin content: 5 mg) of each of the prepared samples is injected into a 2000 Da dialysis membrane and completely sealed. The resulting structure is added to a tube containing 10 mL of phosphate buffer saline and shaken at 37° C., and the dialysis membrane is transferred to a tube containing 10 mL of phosphate buffer saline at a predetermined time point to obtain each sample every time point. Groups of prepared samples are as follows:
Group 1.—free Adriamycin in phosphate buffer saline (free DOX (PBS)) or contrast media (free DOX(Pamiray)) • free Adriamycin & lipiodol with volume ratio of 1:4 (free DOX (1:4)) • human serum albumin nanoparticles carrying Adriamycin in phosphate buffered saline (DOX-HSA-NPs (PBS)) or a contrast medium (DOX-HSA-NPs (Pamiray)) • human serum albumin nanoparticles carrying Adriamycin & lipiodol in a volume ratio of 1:4 (DOX-HSA-NPs (1:4)) […]

`COc1cccc2c1C(=O)c1c(O)c3c(c(O)c1C2=O)C[C@@](O)(C(=O)CO)C[C@@H]3O[C@H]1C[C@H](N)[C@H](O)[C@H](C)O1` [free DOX, Adriamycin]: the “time of most release of the drug” value was at most 3 h.
